Tested on: MV-4-11 cells
Assay: Gene expression microarray analysis (Affymetrix PrimeView) and GSEA
Assay type: cell-based, human
Design: RFU PODN (11730768_x_at) / Fold change /veh PODN (11730768_x_at) / RFU LINC00158 (11744669_a_at) / Fold change /veh LINC00158 (11744669_a_at) / RFU DUSP10 (11751237_a_at) / Fold change /veh DUSP10 (11751237_a_at) / RFU ID3 (11757404_x_at) / Fold change /veh ID3 (11757404_x_at) / RFU PLEKHG5 (11737974_s_at) / Fold change /veh PLEKHG5 (11737974_s_at) / RFU LRRC4B (11730491_at) / Fold change /veh LRRC4B (11730491_at) / RFU GIMAP4 (11747438_a_at) / Fold change /veh GIMAP4 (11747438_a_at) / RFU KRT8 (11758183_x_at) / Fold change /veh KRT8 (11758183_x_at) / RFU CNN1 (11734310_a_at) / Fold change /veh CNN1 (11734310_a_at) / RFU VPS37D (11726825_at) / Fold change /veh VPS37D (11726825_at) / RFU C10orf10 (11716522_x_at) / Fold change /veh C10orf10 (11716522_x_at) / RFU KIR2DL2 /// KIR2DL4 /// KIR2DL5A /// KIR2DL5B /// KIR2DS1 /// KIR2DS2 /// KIR2DS3 /// KIR2DS4 /// KIR3DL3 /// KIR3DL3 /// KIR3DS1 (11738374_at) / Fold change /veh KIR2DL2 /// KIR2DL4 /// KIR2DL5A /// KIR2DL5B /// KIR2DS1 /// KIR2DS2 /// KIR2DS3 /// KIR2DS4 /// KIR3DL3 /// KIR3DL3 /// KIR3DS1 (11738374_at) / RFU C1QL1 (11718748_at) / Fold change /veh C1QL1 (11718748_at) / RFU TMPRSS4 (11747572_a_at) / Fold change /veh TMPRSS4 (11747572_a_at) / RFU HAMP (11756126_x_at) / Fold change /veh HAMP (11756126_x_at) / RFU RNFT2 (11725882_a_at) / Fold change /veh RNFT2 (11725882_a_at) / RFU NR4A2 (11747474_a_at) / Fold change /veh NR4A2 (11747474_a_at) / RFU ABCC12 (11746883_a_at) / Fold change /veh ABCC12 (11746883_a_at) / RFU TMEM136 (11760407_x_at) / Fold change /veh TMEM136 (11760407_x_at) / RFU CLDN22 /// WWC2 (11732394_at) / Fold change /veh CLDN22 /// WWC2 (11732394_at) / RFU HLA-DPB1 (11760878_x_at) / Fold change /veh HLA-DPB1 (11760878_x_at) / RFU SPINT1 (11716480_a_at) / Fold change /veh SPINT1 (11716480_a_at) / RFU GAP43 (11754022_s_at) / Fold change /veh GAP43 (11754022_s_at) / RFU A4GNT (11735810_at) / Fold change /veh A4GNT (11735810_at) / RFU PRB3 (11715151_x_at) / Fold change /veh PRB3 (11715151_x_at) / RFU TUBB4B (11761932_at) / Fold change /veh TUBB4B (11761932_at) / RFU CAPN14 (11732068_a_at) / Fold change /veh CAPN14 (11732068_a_at) / RFU TMCC2 (11721928_a_at) / Fold change /veh TMCC2 (11721928_a_at) / RFU IRGQ (11745062_a_at) / Fold change /veh IRGQ (11745062_a_at) / RFU FAM174B (11720279_a_at) / Fold change /veh FAM174B (11720279_a_at) / RFU TMPRSS4 (11748680_a_at) / Fold change /veh TMPRSS4 (11748680_a_at) / RFU FAM212B (11763350_a_at) / Fold change /veh FAM212B (11763350_a_at) / RFU PLEKHG5 (11743358_a_at) / Fold change /veh PLEKHG5 (11743358_a_at) / RFU ZSCAN30 (11745921_a_at) / Fold change /veh ZSCAN30 (11745921_a_at) / RFU CMKLR1 (11741424_a_at) / Fold change /veh CMKLR1 (11741424_a_at) / RFU LOC101060620 /// MAPK8IP1 (11723275_at) / Fold change /veh LOC101060620 /// MAPK8IP1 (11723275_at) / RFU SPTSSB (11747773_x_at) / Fold change /veh SPTSSB (11747773_x_at) / RFU PRSS12 (11739890_at) / Fold change /veh PRSS12 (11739890_at) / RFU BIN1 (11741810_x_at) / Fold change /veh BIN1 (11741810_x_at) / RFU WNT11 (11732464_a_at) / Fold change /veh WNT11 (11732464_a_at) / RFU C10orf10 (11716521_a_at) / Fold change /veh C10orf10 (11716521_a_at) / RFU C5orf56 (11738089_at) / Fold change /veh C5orf56 (11738089_at) / RFU CYB561 (11721691_x_at) / Fold change /veh CYB561 (11721691_x_at) / RFU ANKRD19P (11752326_a_at) / Fold change /veh ANKRD19P (11752326_a_at) / RFU OR2T12 /// OR2T33 /// OR2T8 (11738714_s_at) / Fold change /veh OR2T12 /// OR2T33 /// OR2T8 (11738714_s_at) / RFU VCAN (11748164_a_at) / Fold change /veh VCAN (11748164_a_at) / RFU JSRP1 (11732532_at) / Fold change /veh JSRP1 (11732532_at) / RFU KRTAP10-11 (11738290_x_at) / Fold change /veh KRTAP10-11 (11738290_x_at) / RFU MYO3A (11730013_a_at) / Fold change /veh MYO3A (11730013_a_at) / RFU EBF3 (11725865_a_at) / Fold change /veh EBF3 (11725865_a_at) / RFU CAMK2N1 (11719241_x_at) / Fold change /veh CAMK2N1 (11719241_x_at) / RFU C5orf56 (11738088_a_at) / Fold change /veh C5orf56 (11738088_a_at) / RFU OLFML3 (11715873_a_at) / Fold change /veh OLFML3 (11715873_a_at) / RFU LOC100653217 /// NTM (11731650_a_at) / Fold change /veh LOC100653217 /// NTM (11731650_a_at) / RFU MAPK11 (11762145_a_at) / Fold change /veh MAPK11 (11762145_a_at) / RFU FIZ1 (11724087_x_at) / Fold change /veh FIZ1 (11724087_x_at) / RFU OASL (11726364_x_at) / Fold change /veh OASL (11726364_x_at) / RFU SOX15 (11748057_x_at) / Fold change /veh SOX15 (11748057_x_at) / RFU CD79A (11719716_a_at) / Fold change /veh CD79A (11719716_a_at) / RFU HIST1H1D (11736915_at) / Fold change /veh HIST1H1D (11736915_at) / RFU CASKIN2 (11723855_a_at) / Fold change /veh CASKIN2 (11723855_a_at) / RFU LOC730098 (11760151_x_at) / Fold change /veh LOC730098 (11760151_x_at) / RFU OR4N2 (11742367_at) / Fold change /veh OR4N2 (11742367_at) / RFU PRRT2 (11749266_a_at) / Fold change /veh PRRT2 (11749266_a_at) / RFU SNX32 (11753110_a_at) / Fold change /veh SNX32 (11753110_a_at) / RFU CDHR5 (11726645_a_at) / Fold change /veh CDHR5 (11726645_a_at) / RFU RCAN1 (11760418_a_at) / Fold change /veh RCAN1 (11760418_a_at) / RFU FAM167A (11723789_a_at) / Fold change /veh FAM167A (11723789_a_at) / RFU FAM26E (11764081_at) / Fold change /veh FAM26E (11764081_at) / RFU ISYNA1 (11749810_s_at) / Fold change /veh ISYNA1 (11749810_s_at) / RFU ACY1 (11761880_at) / Fold change /veh ACY1 (11761880_at) / RFU 11764098_at / Fold change /veh 11764098_at / RFU SAMD14 (11745864_x_at) / Fold change /veh SAMD14 (11745864_x_at) / RFU NPB (11741838_a_at) / Fold change /veh NPB (11741838_a_at) / RFU TMPRSS6 (11731388_a_at) / Fold change /veh TMPRSS6 (11731388_a_at) / RFU KRTAP10-2 (11738614_at) / Fold change /veh KRTAP10-2 (11738614_at) / RFU ARHGAP8 /// PRR5-ARHGAP8 (11727945_x_at) / Fold change /veh ARHGAP8 /// PRR5-ARHGAP8 (11727945_x_at) / RFU KRTAP5-7 /// NADSYN1 (11734609_at) / Fold change /veh KRTAP5-7 /// NADSYN1 (11734609_at) / RFU RASL12 (11751679_a_at) / Fold change /veh RASL12 (11751679_a_at) / RFU CDKN2B (11736163_a_at) / Fold change /veh CDKN2B (11736163_a_at) / RFU PRF1 (11729649_at) / Fold change /veh PRF1 (11729649_at) / RFU, ZNF638 /// ZNF638-IT1 / Fold change vs veh, ZNF638 /// ZNF638-IT1 / RFU, PANK3 / Fold change vs veh, PANK3 / RFU, SH3YL1 / Fold change vs veh, SH3YL1 / RFU, ZEB2 / Fold change vs veh, ZEB2 / RFU, NRIP1 / Fold change vs veh, NRIP1 / RFU, PTTG1IP / Fold change vs veh, PTTG1IP / RFU, CAPN2 / Fold change vs veh, CAPN2 / RFU, MED14 / Fold change vs veh, MED14 / RFU, SNORA58 / Fold change vs veh, SNORA58 / RFU, C1orf63 / Fold change vs veh, C1orf63 / RFU, LRRFIP1 / Fold change vs veh, LRRFIP1 / RFU, NDUFAF7 / Fold change vs veh, NDUFAF7 / RFU, SLC12A2 / Fold change vs veh, SLC12A2 / RFU, IBTK / Fold change vs veh, IBTK / RFU, ESF1 / Fold change vs veh, ESF1 / Fold change vs veh, TMEM50B / RFU, TAOK1 / Fold change vs veh, TAOK1 / RFU, ACBD3 / Fold change vs veh, ACBD3 / RFU, TMA16 / Fold change vs veh, TMA16 / RFU, RWDD3 / Fold change vs veh, RWDD3 / RFU, BCAT1 / Fold change vs veh, BCAT1 / RFU, EDEM3 / Fold change vs veh, EDEM3 / RFU, TMEM33 / Fold change vs veh, TMEM33 / RFU, WDR75 / Fold change vs veh, WDR75 / RFU, AHCTF1 / Fold change vs veh, AHCTF1 / RFU, TFRC / Fold change vs veh, TFRC / RFU, ZDHHC17 / Fold change vs veh, ZDHHC17 / RFU, NOM1 / Fold change vs veh, NOM1 / RFU, ARL8B / Fold change vs veh, ARL8B / RFU, ZBTB11 / Fold change vs veh, ZBTB11 / RFU, TAMM41 / Fold change vs veh, TAMM41 / RFU, KIAA1704 /// LOC100996395 / Fold change vs veh, KIAA1704 /// LOC100996395 / RFU, ING1 / Fold change vs veh, ING1 / RFU, TRMT61B / Fold change vs veh, TRMT61B / RFU, FUBP3 / Fold change vs veh, FUBP3 / RFU, TP53 / Fold change vs veh, TP53 / RFU, TNKS2 / Fold change vs veh, TNKS2 / RFU, ZFP14 / Fold change vs veh, ZFP14 / RFU, ACTR2 / Fold change vs veh, ACTR2 / RFU, PPP3R1 / Fold change vs veh, PPP3R1 / RFU, PIK3R1 / Fold change vs veh, PIK3R1 / RFU, HNRNPA1 / Fold change vs veh, HNRNPA1 / RFU, RNF170 / Fold change vs veh, RNF170 / RFU, ZNF28 / Fold change vs veh, ZNF28 / RFU, RNGTT / Fold change vs veh, RNGTT / RFU, OGT / Fold change vs veh, OGT / RFU, BRD1 / Fold change vs veh, BRD1 / RFU, MARS / Fold change vs veh, MARS / RFU, ZNF655 / Fold change vs veh, ZNF655 / RFU, FAHD1 / Fold change vs veh, FAHD1 / RFU, BDP1 / Fold change vs veh, BDP1 / RFU, LRRCC1 / Fold change vs veh, LRRCC1 / RFU, ARID1A / Fold change vs veh, ARID1A / RFU, ZNF146 / Fold change vs veh, ZNF146 / RFU, ZNF330 / Fold change vs veh, ZNF330 / RFU, GPN3 / Fold change vs veh, GPN3 / RFU, C9orf123 / Fold change vs veh, C9orf123 / RFU, N4BP2L2 / Fold change vs veh, N4BP2L2 / RFU, ARFIP1 / Fold change vs veh, ARFIP1 / RFU, FAM179B / Fold change vs veh, FAM179B / RFU, BCL10 / Fold change vs veh, BCL10 / RFU, UHRF1BP1L / Fold change vs veh, UHRF1BP1L / RFU, BET1 / Fold change vs veh, BET1 / RFU, CNOT2 / Fold change vs veh, CNOT2 / RFU, ZNF268 / Fold change vs veh, ZNF268 / Fold change vs veh, ZNF507 / RFU, DGCR2 / Fold change vs veh, DGCR2 / RFU, WDSUB1 / Fold change vs veh, WDSUB1 / Fold change vs veh, HSP90B1 /// MIR3652 / RFU, ADSS / Fold change vs veh, ADSS / RFU, GK / Fold change vs veh, GK / RFU, ZNF148 / Fold change vs veh, ZNF148 / RFU, TAF9 / Fold change vs veh, TAF9 / RFU, SLC1A5 / Fold change vs veh, SLC1A5 / RFU, SLMO2 / Fold change vs veh, SLMO2 / RFU, ABCC4 / Fold change vs veh, ABCC4 / RFU, LOC101060439 /// RAP1B / Fold change vs veh, LOC101060439 /// RAP1B / RFU, RFX7 / Fold change vs veh, RFX7 / RFU, GTPBP10 / Fold change vs veh, GTPBP10 / RFU, CNEP1R1 / Fold change vs veh, CNEP1R1 / RFU, BIVM-ERCC5 /// ERCC5 / Fold change vs veh, BIVM-ERCC5 /// ERCC5 / RFU, ILF3 / Fold change vs veh, ILF3 / RFU 11762660_at / Fold change /veh 11762660_at / RFU VCAN (11757783_s_at) / Fold change /veh VCAN (11757783_s_at) / RFU DDX43 (11728927_at) / Fold change /veh DDX43 (11728927_at) / RFU KRT8 (11758188_x_at) / Fold change /veh KRT8 (11758188_x_at) / RFU NKD1 (11759106_at) / Fold change /veh NKD1 (11759106_at) / RFU SRD5A1 (11742802_a_at) / Fold change /veh SRD5A1 (11742802_a_at) / RFU TPSAB1 /// TPSB2 (11721975_s_at) / Fold change /veh TPSAB1 /// TPSB2 (11721975_s_at) / RFU GSTM3 (11746129_a_at) / Fold change /veh GSTM3 (11746129_a_at) / RFU IL23R (11737362_x_at) / Fold change /veh IL23R (11737362_x_at) / RFU TMEM51 (11727254_a_at) / Fold change /veh TMEM51 (11727254_a_at) / RFU PIWIL2 (11732686_x_at) / Fold change /veh PIWIL2 (11732686_x_at) / RFU ORM1 (11744905_x_at) / Fold change /veh ORM1 (11744905_x_at) / RFU CCDC152 (11743942_at) / Fold change /veh CCDC152 (11743942_at) / RFU ECM1 (11717891_a_at) / Fold change /veh ECM1 (11717891_a_at) / RFU IL23R (11748794_a_at) / Fold change /veh IL23R (11748794_a_at) / RFU TNFAIP8L3 (11732012_x_at) / Fold change /veh TNFAIP8L3 (11732012_x_at) / RFU MBOAT4 (11741988_at) / Fold change /veh MBOAT4 (11741988_at) / RFU 11764193_at / Fold change /veh 11764193_at / RFU TMEM53 (11763286_at) / Fold change /veh TMEM53 (11763286_at) / RFU MAGEB2 (11727129_at) / Fold change /veh MAGEB2 (11727129_at) / RFU TMEM200A (11744735_a_at) / Fold change /veh TMEM200A (11744735_a_at) / RFU CCDC152 (11751479_a_at) / Fold change /veh CCDC152 (11751479_a_at) / RFU FAM211A (11726209_a_at) / Fold change /veh FAM211A (11726209_a_at) / RFU RGS16 (11746705_a_at) / Fold change /veh RGS16 (11746705_a_at) / RFU VCAN (11755009_s_at) / Fold change /veh VCAN (11755009_s_at) / RFU RHOB (11743442_s_at) / Fold change /veh RHOB (11743442_s_at) / RFU RGS16 (11720943_a_at) / Fold change /veh RGS16 (11720943_a_at) / RFU RGS16 (11720944_at) / Fold change /veh RGS16 (11720944_at) / RFU, VPS4B / Fold change vs veh, VPS4B / RFU, CREB1 / Fold change vs veh, CREB1 / RFU, DNAJC13 / Fold change vs veh, DNAJC13 / RFU, GNAQ / Fold change vs veh, GNAQ / RFU, CDK5R1 / Fold change vs veh, CDK5R1 / RFU, ZRANB3 / Fold change vs veh, ZRANB3 / RFU, CUL4A / Fold change vs veh, CUL4A / RFU, CCNY / Fold change vs veh, CCNY / RFU, UFL1 / Fold change vs veh, UFL1 / RFU, COG3 / Fold change vs veh, COG3 / RFU, DIAPH2 / Fold change vs veh, DIAPH2 / RFU, SKA2 / Fold change vs veh, SKA2 / RFU, AFF3 / Fold change vs veh, AFF3 / RFU, LMF1 / Fold change vs veh, LMF1 / RFU, IPO11 / Fold change vs veh, IPO11 / RFU, DFFB / Fold change vs veh, DFFB / RFU, FOXP1 / Fold change vs veh, FOXP1 / RFU, CARD8 / Fold change vs veh, CARD8 / RFU, STRN3 / Fold change vs veh, STRN3 / RFU, ADK / Fold change vs veh, ADK / RFU, RASSF2 / Fold change vs veh, RASSF2 / RFU, WIPF1 / Fold change vs veh, WIPF1 / RFU, LARP1B / Fold change vs veh, LARP1B / RFU, RASA1 / Fold change vs veh, RASA1 / RFU, RB1 / Fold change vs veh, RB1 / RFU, PPFIA1 / Fold change vs veh, PPFIA1 / RFU, MAT2A / Fold change vs veh, MAT2A / RFU, CCT5 / Fold change vs veh, CCT5 / RFU, WDR92 / Fold change vs veh, WDR92 / RFU, CUX1 / Fold change vs veh, CUX1 / RFU, TTC7A / Fold change vs veh, TTC7A / RFU, TMEM135 / Fold change vs veh, TMEM135 / RFU, DEPTOR / Fold change vs veh, DEPTOR / RFU, CPM / Fold change vs veh, CPM / RFU, DNAJB6 / Fold change vs veh, DNAJB6 / RFU, CACNA2D3 / Fold change vs veh, CACNA2D3 / RFU, DTX4 / Fold change vs veh, DTX4 / RFU, TFCP2 / Fold change vs veh, TFCP2 / RFU, GMCL1 /// GMCL1P1 / Fold change vs veh, GMCL1 /// GMCL1P1 / RFU, AEBP2 / Fold change vs veh, AEBP2 / RFU, SNHG1 /// SNORD22 /// SNORD25 /// SNORD26 /// SNORD27 /// SNORD28 /// SNORD29 /// SNORD31 / Fold change vs veh, SNHG1 /// SNORD22 /// SNORD25 /// SNORD26 /// SNORD27 /// SNORD28 /// SNORD29 /// SNORD31 / Fold change (Aza/veh), C12orf56 (ProbeSet 11735607_a_at) / Fold change (ACY-1035/veh), C12orf56 (ProbeSet 11735607_a_at) / Fold change (Aza/veh), FGFR1OP (ProbeSet 11751329_s_at) / Fold change (ACY-1035/veh), FGFR1OP (ProbeSet 11751329_s_at) / Fold change (Aza/veh), VPS36 (ProbeSet 11739960_a_at) / Fold change (ACY-1035/veh), VPS36 (ProbeSet 11739960_a_at) / RFU SYPL1 (11715823_x_at) / Fold change /veh SYPL1 (11715823_x_at) / RFU IGFBP7 (11715501_s_at) / Fold change /veh IGFBP7 (11715501_s_at) / RFU REEP3 (11722064_at) / Fold change /veh REEP3 (11722064_at) / RFU IGLL1 (11728026_x_at) / Fold change /veh IGLL1 (11728026_x_at): dose or concentration left out as unconfirmed
Conditions: MV-4-11 cells, 48 hours

Nc1ncn([C@@H]2O[C@H](CO)[C@@H](O)[C@H]2O)c(=O)n1 [azacitidine]
Fold change /veh IGFBP7 (11715501_s_at): 0.50

Source: article PMC5218480 (PLoS ONE, 2017)
